# Assays:
# hCAII = hCAII (Homo sapiens (Human), UniProt P00918); test: Carbonic Anhydrase (Esterase) Biochemical Assay, hCAII; settings: read-out: IC50-hCAII; 4-nitrophenyl acetate hydrolysis, 60 min
# Description: 10-dose, 3-fold serial dilutions of compounds were prepared at starting concentrations of 10 mM in 100% DMSO. […] Final starting concentration in the assay was 50 μM. DMSO (no compound) and acetazolamide were included on each microplate as negative and positive controls, respectively.
# Following a preincubation at room temperature for 15 minutes, 20 μl of a 4 mM solution of 4NPA substrate (Sigma cat #N8130) in assay buffer were added to start the reaction.
# HSV-2 virus (MS strain) [1] = test: HSV qPCR Assay (HSV replication in ARPE-19 cells); settings: Human alphaherpesvirus 2, ARPE-19, read-out: EC50-HSV2-qPCR
# Description: HSV replication in the presence or absence of compounds was measured by qPCR according to the following procedure: DMSO stock compound solutions (1-10 mM) were serially diluted (2.5-fold) in DMSO in clear round bottom 96-well plates. Compounds were then diluted 1:20 in assay medium (DMEM/F12 Glutamax+2% Fetal bovine serum+1% Penicillin Streptomycin) and 10 μL of these dilutions were added to 96-well tissue culture plates for final starting concentrations between 0.5 and 5 μM.
# Cells were resuspended in assay medium, counted, and cell density was adjusted to 2.8E+05 cells/ml with assay medium. […] 90 μL of the infection suspension (25,000 cells) were added to assay plates in which compounds were already added. After an overnight incubation at 37° C., cell culture medium was removed, and cell lysis was performed using the prepGEM Universal kit (MicroGEM cat #PUN1000). Specifically, 100 μL of prepGEM master mix (94.75 μL Water, 5 μL buffer, 0.25 μL enzyme stock) were added to each well and plates were incubated at room temperature for 15 minutes, with the 5 last minutes on a plate shaker. The cell lysates were then transferred to a 96-well PCR compatible microplate (Applied Biosystems, Cat #N8010560). Plates were sealed with a heat resistant plastic sealer and heated on a thermal cycler using the following conditions: 75° C. for 10 min, 95° C. for 5 minutes. Finally, plates were cooled down to room temperature with light shaking before proceeding to the qPCR setup.
# Plates were sealed with a clear sealer, spun down, and qPCR reactions were performed in an Applied Biosystems Quantstudio 7 Flex instrument using the following conditions: 95° C. for 2 minutes, then 40 cycles alternating between 95° C. for 5 seconds and 60° C. for 30 seconds.
# Analysis was performed using dCT method where dCT=CT (test)−CT (DMSO). Fold change was calculated using the 2^^dCT equation. This fold change was then converted to percentage relative to DMSO control (no drug). EC50s were determined by non-linear regression analysis using GraphPad Prism software.
# HSV-2 virus (MS strain) [2] = test: HSV-2 Cellomics Assay (immunofluorescence of HSV protein gD in infected ARPE-19 cells); settings: Human alphaherpesvirus 2, ARPE-19, 16 h
# Description: Compounds were tested for their ability to inhibit HSV-2 replication by monitoring the expression of the HSV protein gD using a high-throughput immunofluorescence-based assay. 10-dose, 3-fold serial dilutions of compounds were prepared at starting concentrations of 0.2 or 2 mM in 100% DMSO. […] The final starting concentration in the assay was either 1 or 10 μM. DMSO (no compound) and pritelivir were included on each microplate as negative and positive controls, respectively.
# Prior to confluence, cells were transferred to a centrifuge tube and spun for 5 minutes at 1000 rpm. Cells were resuspended in assay medium (DMEM/F-12 Glutamax, 2% FBS, 1% Penicillin-Streptomycin) and counted. Cell density was adjusted to 150,000 cells/ml and infected with HSV-2 virus (MS strain, ATCC cat #VR-540) at a MOI of 0.06 in a 50 ml conical tube for 1 hour under constant rocking. Cells were then spun for 5 minutes at 1000 rpm and the media replaced with assay medium containing either 2% FBS or 10% human serum (EMD Millipore cat #S1-100 ML). 50 μl of the infection suspension were added into microplate wells that were pre-spotted with compounds (7,500 cells per well). Plates were incubated for 16 hours at 37° C.
# After a 30-minute incubation at room temperature, plates were washed 4 times with 100 μl/well of PBS using a Biotek plate washer. […] Plates were washed 4 times again and 50 μl of DPBS were added to all wells prior to sealing the plates with a black adhesive seal. Fluorescence was measured on a Cellomics plate reader.
# Data analysis was carried out using the Thermo Scientific HCS Studio software. Briefly, cells were identified using the DAPI nuclear stain and thresholds were set to filter cells out based on shape and size. A second threshold based on green fluorescence intensity (detection of HSV-2 gD) was set to identify HSV-2 infected cells. Data was reported as the average fluorescence intensity of HSV-2 infected cells.
# [3] = system: human cryopreserved hepatocytes; test: Stability Assay in Cryopreserved Hepatocytes (human); assay type: in vitro ADME; settings: 1 μM, calculated from half-life using the well-stirred model
# Description: Test compound was incubated at 1 μM with either rat or human cryopreserved hepatocytes (BioIVT, Westbury, NY) up to 6 hours at 37° C. in a 24-well plate format (1×10^6 cells/mL per well). At specified time points, samples were transferred to a 96-well plate and quenched with 2 volumes of a solution containing 90% acetonitrile 10% methanol 0.1% formic acid and internal standard. Sample plate was centrifuged at 3200 rpm for 15 min and supernatants transferred to a new plate containing half volume of water. The resulting solution was analyzed by LC-MS/MS. Data (analyte to internal standard peak area ratio) was plotted on a semi-log scale and fitted using an exponential fit. Assuming first order kinetics, the half-life (t1/2) and rate of metabolism were determined. Predicted hepatic clearance was calculated from the half-life using the well-stirred model.
# [4] = MT-4 CC50 Assay (CellTiter Glo); assay type: cell-based; settings: human, MT-4 cells, luminescence, read-out: CC50-MT4
# Description: Compounds were tested in 384-well plates: 18 compounds in duplex. Compounds were diluted in 7 points, 3-fold with DMSO by Bravo. Assay plate, which contains 20 uL medium with compounds, was seeded 2000 MT-4 cells in 20 uL/well by Multi-drop to start the assay. The plate was incubated at 37° C. for 5 days. On 6th day, the CellTiter Glo 40 uL was added in each well. Luminescence was read by Victor II.
# [5] = read-out: EC50-HSV2-10% Human Serum
smiles,measurement,setting,value
NS(=O)(=O)c1cc2c(cc1Cl)CCN2C(=O)C1Cc2ccc(-c3ccccn3)cc2C1 (stereo not drawn) [Example 5],IC50,hCAII,≥ 25000 nM
same,EC50,HSV-2 virus (MS strain) [1],10.9 nM
same,EC50,HSV-2 virus (MS strain) [2]; [5],≥ 25000 nM
same,EC50,HSV-2 virus (MS strain) [2]; read-out: EC50-HSV2-FBS,35 nM
C[C@@H]1Cc2ccc(S(N)(=O)=O)cc2N1C(=O)[C@@H]1Cc2ccc(-c3ccccn3)cc2C1 [Example 15],EC50,HSV-2 virus (MS strain) [1],4.9 nM
same,Predicted human hepatic clearance,[3],0.933 mL/min/kg
same,EC50,HSV-2 virus (MS strain) [2]; [5],276 nM
same,EC50,HSV-2 virus (MS strain) [2]; read-out: EC50-HSV2-FBS,28 nM
same,CC50 at 5 days,[4],≥ 50000 nM
NS(=O)(=O)c1cc2c(cc1F)CCN2C(=O)[C@@H]1Cc2ccc(-c3ccccn3)cc2C1 [Example 28],Predicted human hepatic clearance,[3],3.67 mL/min/kg
same,EC50,HSV-2 virus (MS strain) [2]; [5],8440 nM
same,EC50,HSV-2 virus (MS strain) [2]; read-out: EC50-HSV2-FBS,6 nM
same,CC50 at 5 days,[4],≥ 50000 nM
C[C@@H]1Cc2cc(F)c(S(N)(=O)=O)cc2N1C(=O)[C@@H]1Cc2ccc(-c3ccccn3)cc2C1 [Example 35],EC50,HSV-2 virus (MS strain) [1],1.1 nM
same,Predicted human hepatic clearance,[3],0.917 mL/min/kg
same,EC50,HSV-2 virus (MS strain) [2]; [5],57.5 nM
same,EC50,HSV-2 virus (MS strain) [2]; read-out: EC50-HSV2-FBS,7 nM
same,CC50 at 5 days,[4],24000 nM
C[C@@H]1Cc2cc(F)c(S(N)(=O)=O)cc2N1C(=O)[C@H]1Cc2cc(-c3ccccn3)ccc2O1 [Example 44],EC50,HSV-2 virus (MS strain) [1],1 nM
same,Predicted human hepatic clearance,[3],0.83 mL/min/kg
same,EC50,HSV-2 virus (MS strain) [2]; [5],326 nM
same,EC50,HSV-2 virus (MS strain) [2]; read-out: EC50-HSV2-FBS,14 nM
same,CC50 at 5 days,[4],≥ 10000 nM
"NS(=O)(=O)c1cc2c(cc1F)CCN2C(=O)[C@@H]1Cc2ccc(-c3cc(F)ccc3F)cc2C1 [Example 58, (R)-1-(5-(2,5-difluorophenyl)-2,3-dihydro-1H-indene-2-carbonyl)-5-fluoroindoline-6-sulfonamide]",Predicted human hepatic clearance,[3],5.33 mL/min/kg
same,EC50,HSV-2 virus (MS strain) [2]; [5],4310 nM
same,EC50,HSV-2 virus (MS strain) [2]; read-out: EC50-HSV2-FBS,12 nM
same,CC50 at 5 days,[4],≥ 10000 nM
"C[C@@H]1Cc2cc(Cl)c(S(N)(=O)=O)cc2N1C(=O)[C@@H]1Cc2ccc(-c3ccccn3)cc2C1 [Example 60, (R)-5-chloro-2-methyl-1-((R)-5-(pyridin-2-yl)-2,3-dihydro-1H-indene-2-carbonyl)indoline-6-sulfonamide]",Predicted human hepatic clearance,[3],2.83 mL/min/kg
same,EC50,HSV-2 virus (MS strain) [2]; [5],434 nM
same,EC50,HSV-2 virus (MS strain) [2]; read-out: EC50-HSV2-FBS,13 nM
same,CC50 at 5 days,[4],≥ 10000 nM
"C[C@@H]1Cc2cc(F)c(S(N)(=O)=O)cc2N1C(=O)[C@@H]1Cc2ccc(-c3cc(F)ccc3F)cc2C1 [Example 61, (R)-1-((R)-5-(2,5-difluorophenyl)-2,3-dihydro-1H-indene-2-carbonyl)-5-fluoro-2-methylindoline-6-sulfonamide]",Predicted human hepatic clearance,[3],2.5 mL/min/kg
same,EC50,HSV-2 virus (MS strain) [2]; [5],169 nM
same,EC50,HSV-2 virus (MS strain) [2]; read-out: EC50-HSV2-FBS,28 nM
same,CC50 at 5 days,[4],≥ 10000 nM
"NS(=O)(=O)c1cc2c(cc1F)CCN2C(=O)[C@@H]1Cc2ccc(-c3ccccn3)cc2O1 [Example 65, (S)-5-fluoro-1-(6-(pyridin-2-yl)-2,3-dihydrobenzofuran-2-carbonyl)indoline-6-sulfonamide]",EC50,HSV-2 virus (MS strain) [1],1.4 nM
same,Predicted human hepatic clearance,[3],0.83 mL/min/kg
same,EC50,HSV-2 virus (MS strain) [2]; [5],147 nM
same,EC50,HSV-2 virus (MS strain) [2]; read-out: EC50-HSV2-FBS,16 nM
same,CC50 at 5 days,[4],≥ 10000 nM
NS(=O)(=O)c1ccc2c(c1)N(C(=O)C1Cc3ccc(-c4nccnc4F)cc3C1)CC2 (stereo not drawn) [Example 73],IC50,hCAII,≥ 25000 nM
same,EC50,HSV-2 virus (MS strain) [1],17.5 nM
same,EC50,HSV-2 virus (MS strain) [2]; [5],6040 nM
same,EC50,HSV-2 virus (MS strain) [2]; read-out: EC50-HSV2-FBS,129 nM
NS(=O)(=O)c1ccc2c(c1)N(C(=O)C1Cc3ccc(-c4cnccn4)cc3C1)CC2 (stereo not drawn) [Example 74],IC50,hCAII,≥ 25000 nM
same,EC50,HSV-2 virus (MS strain) [1],8.3 nM
same,EC50,HSV-2 virus (MS strain) [2]; [5],11800 nM
same,EC50,HSV-2 virus (MS strain) [2]; read-out: EC50-HSV2-FBS,59 nM
NS(=O)(=O)c1ccc2c(c1)N(C(=O)C1Cc3ccc(-c4cccc(F)n4)cc3C1)CC2 (stereo not drawn) [Example 75],IC50,hCAII,≥ 25000 nM
same,EC50,HSV-2 virus (MS strain) [1],14.3 nM
same,EC50,HSV-2 virus (MS strain) [2]; read-out: EC50-HSV2-FBS,32 nM
